Measurements reported in patent US20230234991A1, “SELF-ASSEMBLED PEPTIDE NANORODS AND USES THEREOF” (TRANSFERT PLUS, SOCIÉTÉ EN COMMANDITE, priority 2020, published 2023).
“Also recorded” adds a separate entry of the source.

What was measured:
TLR2 = molecular target: T1, TLR2 (Mus musculus, UniProt Q9QUN7); experiment: TLR-2 stimulation, SEAP activity in HEK-Blue mTLR2 cells; assay type: cell-based
T1 construct: host or cells: HEK293 (HEK-Blue mTLR2)
Method: TLR-2 stimulation. HEK293 cells stably co-transfected with mTLR2 and SEAP (HEK-Blue mTLR2 cells, InvivoGen) were cultivated in Dulbecco's Modified Eagle's Medium supplemented with 4.5 g/I glucose, 10% (v/v) fetal bovine serum, 100 U/ml penicillin, […], […], 2 mM L-glutamine. At 50-80% confluency, cells were seeded in Hek-Blue detection medium (InvivoGen) at a density of 50,000 cells/well in a 96-well plate containing NRs and controls. After 16 h incubation at 37° C. in 5% CO2, absorbance was monitored at 630 nm.

M2e = tested on: M2e; set-up: species or system BALB/c mice; conditions: mouse, in vivo, sc
[1] = tested on: influenza virus A/PuertoRico/8/34; set-up: species or system BALB/c mice; conditions: mouse, in vivo

T1 sequence (Q9QUN7 25-784): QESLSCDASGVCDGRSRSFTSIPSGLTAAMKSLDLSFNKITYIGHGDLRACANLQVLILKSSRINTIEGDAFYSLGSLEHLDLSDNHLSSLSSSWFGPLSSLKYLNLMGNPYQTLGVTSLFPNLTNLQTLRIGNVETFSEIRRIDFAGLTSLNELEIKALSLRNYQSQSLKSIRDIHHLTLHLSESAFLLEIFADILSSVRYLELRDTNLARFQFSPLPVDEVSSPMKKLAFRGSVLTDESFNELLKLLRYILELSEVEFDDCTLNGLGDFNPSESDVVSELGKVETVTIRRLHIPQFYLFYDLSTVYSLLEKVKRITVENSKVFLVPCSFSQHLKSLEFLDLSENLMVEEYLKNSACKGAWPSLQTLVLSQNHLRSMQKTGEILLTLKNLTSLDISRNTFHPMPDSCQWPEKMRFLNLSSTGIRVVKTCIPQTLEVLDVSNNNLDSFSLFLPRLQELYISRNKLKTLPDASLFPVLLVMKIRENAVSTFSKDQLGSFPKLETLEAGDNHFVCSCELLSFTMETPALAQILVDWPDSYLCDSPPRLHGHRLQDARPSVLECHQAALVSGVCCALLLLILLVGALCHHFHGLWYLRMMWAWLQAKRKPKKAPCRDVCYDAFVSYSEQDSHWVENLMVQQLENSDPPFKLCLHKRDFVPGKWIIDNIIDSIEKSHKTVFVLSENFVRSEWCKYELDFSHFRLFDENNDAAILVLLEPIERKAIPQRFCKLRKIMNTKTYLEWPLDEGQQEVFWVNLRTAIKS

## SLLTEVETPIRNEWGSRSNGSSD [Peptide M2e]
TLR2
  SEAP activity: no activity was measured
M2e
  M2e-specific antibody response (IgG): did not raise any significant level of epitope-specific IgG; also recorded: very low antibody response; also recorded: significant antibody titer
[1]
  mortality: 100%
